Several values for one entry are separate records, joined by “and”; a condition that tells them apart may be missing. Equal entries are not always repeated.
Assays:
MCF-7 cells [1] = assay: Fatty acid oxidation ([1-14C]palmitate to 14CO2) in MCF-7 cells; format: cell-based, human
Experimental: Human breast cancer cell line MCF-7 was obtained from the American Type Culture Collection. 1×10^6 MCF-7 cells were plated in T-25 flasks in triplicate and incubated overnight at 37° C. Drugs were then added as indicated diluted from 5 mg/ml stock in DMSO. After 2 hours, medium with drugs was removed and cells were preincubated for 30 min. with 1.5 ml of the following buffer: 114 mM NaCl, 4.7 mM KCl, 1.2 mM KH2PO4, 1.2 mM MgSO4, glucose 11 mM. After preincubation, 200 μl of assay buffer was added containing: 114 mM NaCl, 4.7 mM KCl, 1.2 mM KH2PO4, 1.2 mM MgSO4, glucose 11 mM, 2.5 mM palmitate (containing with 10 μCi of [1-^14C]palmitate) bound to albumin, 0.8 mM L-carnitine, and cells were incubated at 37° C. for 2 h. Following the incubation, 400 μl of benzethonium hydrochloride was added to the center well to collect released ^14CO2. Immediately, the reaction was stopped by adding 500 μl of 7% perchloric acid to the cells. The flasks with wells were then incubated for 2 h at 37° C. after which the benzothonium hydrochloride was removed and counted for ^14C. Blanks were prepared by adding 500 μl of 7% perchloric acid to the cells prior to the incubation with the assay buffer for 2 h.
(§1) FAS activity was measured by monitoring the malonyl-CoA dependent oxidation of NADPH spectrophotometrically at OD340 in 96-well plates, as described in International Patent Publication WO 2004/005277. The IC50 for the compounds against FAS was determined by plotting the change in OD340 against time for each inhibitor concentration tested and determining the rate of change by linear regression. The concentration of a particular compound yielding 50% inhibition of the rate for FAS in the absence of the compound is the IC50. Stimulation of CPT-1 activity was measured as described in Example 2, except the cells were preincubated with the compound for 2 hours at the concentrations indicated in the table. Stimulation of Fatty acid oxidation was determined as described in Example 1 for cells preincubated with the compounds at the concentrations indicated in the table.

CPT-1 = biological target: T1, CPT-1 (Homo sapiens, UniProt P50416); assay: CPT-1 activity assay in MCF-7 cells; format: cell-based; conditions: for CPT-1 Stimulation (% Control): cells preincubated 2 hours; for CPT-1 activity, % of control: FIG. 4
T1 construct: endogenous in cells; host or cells: MCF-7 human breast cancer cells
T1 sequence (P50416 1-773): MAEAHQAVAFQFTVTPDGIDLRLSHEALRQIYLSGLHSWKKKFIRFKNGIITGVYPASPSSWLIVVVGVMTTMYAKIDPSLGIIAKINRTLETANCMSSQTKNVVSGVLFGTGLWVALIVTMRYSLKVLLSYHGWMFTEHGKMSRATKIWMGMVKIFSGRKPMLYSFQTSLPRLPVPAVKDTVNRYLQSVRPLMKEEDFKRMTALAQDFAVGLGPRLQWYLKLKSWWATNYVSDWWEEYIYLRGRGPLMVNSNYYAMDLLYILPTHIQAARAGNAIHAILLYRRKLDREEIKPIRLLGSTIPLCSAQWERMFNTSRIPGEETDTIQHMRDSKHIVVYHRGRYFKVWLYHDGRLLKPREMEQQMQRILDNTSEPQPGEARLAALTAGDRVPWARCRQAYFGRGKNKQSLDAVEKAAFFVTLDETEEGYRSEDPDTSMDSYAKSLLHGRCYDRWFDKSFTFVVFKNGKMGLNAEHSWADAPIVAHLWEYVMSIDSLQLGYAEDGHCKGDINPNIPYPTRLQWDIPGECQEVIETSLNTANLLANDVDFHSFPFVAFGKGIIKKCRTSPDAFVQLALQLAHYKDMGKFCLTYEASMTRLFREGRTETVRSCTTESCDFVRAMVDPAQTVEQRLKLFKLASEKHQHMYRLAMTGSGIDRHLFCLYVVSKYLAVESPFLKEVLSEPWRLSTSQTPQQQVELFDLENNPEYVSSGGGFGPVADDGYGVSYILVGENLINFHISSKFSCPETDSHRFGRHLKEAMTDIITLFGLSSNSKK
Experimental: CPT-1 activity was assayed in MCF-7 cells by the following published procedure: MCF-7 cells were plated in DMEM with 10% fetal bovine serum at 10^6 cells in 24-well plates in triplicate. Following overnight incubation at 37° C., the medium was removed and replaced with 700 μl of assay medium consisting of: 50 mM imidazole, 70 mM KCl, 80 mM sucrose, 1 mM EGTA, 2 mM MgCl2, 1 mM DTT, 1 mM KCN, 1 mM ATP, 0.1% fatty acid free bovine serum albumin, 70 μM palmitoyl-CoA, 0.25 μCi [methyl-^14C]L-carnitine, 40 μg digitonin with or without 20 μM malonyl-CoA. After incubation for 6 minutes at 37° C., the reaction was stopped by the addition of 500 μl of ice-cold 4 M perchloric acid. Cells were then harvested and centrifuged at 13,000×g for 5 min. The pellet was washed with 500 μl ice cold 2 mM perchloric acid and centrifuged again. The resulting pellet was resuspended in 800 μl dH2O and extracted with 150 μl of butanol. The butanol phase was counted by liquid scintillation and represents the acylcarnitine derivative.
MCF-7 cells were treated with C75 at 10 or 20 μg/mL for 1 hr before CPT-1 activity was assayed. The assay was performed with the C75 and malonyl-CoA concentrations indicated (“M” indicates malonyl-CoA at 20 uM). Malonyl-CoA treatment alone caused a 46% reduction in CPT-1 activity similar to the previous experiment (see FIG. 2; p=0.02, two-tailed t-test, Prism 3.0). The level of malonyl-CoA inhibition of the CPT-1 activity is consistent with the activity of the liver isoform of CPT-1 in MCF-7 cells. The Ki of malonyl-CoA for the liver isoform of CPT-1 is ˜7 μM while the Ki for the muscle isoform of CPT-1 is 0.07 μM. Thus, MCF-7 cells express predominantly the liver isoform of CPT-1 (consistent with the immunoblot analysis).
as §1

FAS = FAS (Homo sapiens, UniProt P49327); assay: FAS activity, malonyl-CoA dependent oxidation of NADPH at OD340; format: biochemical; conditions: read-out: FAS Inhibition (IC50) (converted)
Chain of FAS (P49327 whole entry): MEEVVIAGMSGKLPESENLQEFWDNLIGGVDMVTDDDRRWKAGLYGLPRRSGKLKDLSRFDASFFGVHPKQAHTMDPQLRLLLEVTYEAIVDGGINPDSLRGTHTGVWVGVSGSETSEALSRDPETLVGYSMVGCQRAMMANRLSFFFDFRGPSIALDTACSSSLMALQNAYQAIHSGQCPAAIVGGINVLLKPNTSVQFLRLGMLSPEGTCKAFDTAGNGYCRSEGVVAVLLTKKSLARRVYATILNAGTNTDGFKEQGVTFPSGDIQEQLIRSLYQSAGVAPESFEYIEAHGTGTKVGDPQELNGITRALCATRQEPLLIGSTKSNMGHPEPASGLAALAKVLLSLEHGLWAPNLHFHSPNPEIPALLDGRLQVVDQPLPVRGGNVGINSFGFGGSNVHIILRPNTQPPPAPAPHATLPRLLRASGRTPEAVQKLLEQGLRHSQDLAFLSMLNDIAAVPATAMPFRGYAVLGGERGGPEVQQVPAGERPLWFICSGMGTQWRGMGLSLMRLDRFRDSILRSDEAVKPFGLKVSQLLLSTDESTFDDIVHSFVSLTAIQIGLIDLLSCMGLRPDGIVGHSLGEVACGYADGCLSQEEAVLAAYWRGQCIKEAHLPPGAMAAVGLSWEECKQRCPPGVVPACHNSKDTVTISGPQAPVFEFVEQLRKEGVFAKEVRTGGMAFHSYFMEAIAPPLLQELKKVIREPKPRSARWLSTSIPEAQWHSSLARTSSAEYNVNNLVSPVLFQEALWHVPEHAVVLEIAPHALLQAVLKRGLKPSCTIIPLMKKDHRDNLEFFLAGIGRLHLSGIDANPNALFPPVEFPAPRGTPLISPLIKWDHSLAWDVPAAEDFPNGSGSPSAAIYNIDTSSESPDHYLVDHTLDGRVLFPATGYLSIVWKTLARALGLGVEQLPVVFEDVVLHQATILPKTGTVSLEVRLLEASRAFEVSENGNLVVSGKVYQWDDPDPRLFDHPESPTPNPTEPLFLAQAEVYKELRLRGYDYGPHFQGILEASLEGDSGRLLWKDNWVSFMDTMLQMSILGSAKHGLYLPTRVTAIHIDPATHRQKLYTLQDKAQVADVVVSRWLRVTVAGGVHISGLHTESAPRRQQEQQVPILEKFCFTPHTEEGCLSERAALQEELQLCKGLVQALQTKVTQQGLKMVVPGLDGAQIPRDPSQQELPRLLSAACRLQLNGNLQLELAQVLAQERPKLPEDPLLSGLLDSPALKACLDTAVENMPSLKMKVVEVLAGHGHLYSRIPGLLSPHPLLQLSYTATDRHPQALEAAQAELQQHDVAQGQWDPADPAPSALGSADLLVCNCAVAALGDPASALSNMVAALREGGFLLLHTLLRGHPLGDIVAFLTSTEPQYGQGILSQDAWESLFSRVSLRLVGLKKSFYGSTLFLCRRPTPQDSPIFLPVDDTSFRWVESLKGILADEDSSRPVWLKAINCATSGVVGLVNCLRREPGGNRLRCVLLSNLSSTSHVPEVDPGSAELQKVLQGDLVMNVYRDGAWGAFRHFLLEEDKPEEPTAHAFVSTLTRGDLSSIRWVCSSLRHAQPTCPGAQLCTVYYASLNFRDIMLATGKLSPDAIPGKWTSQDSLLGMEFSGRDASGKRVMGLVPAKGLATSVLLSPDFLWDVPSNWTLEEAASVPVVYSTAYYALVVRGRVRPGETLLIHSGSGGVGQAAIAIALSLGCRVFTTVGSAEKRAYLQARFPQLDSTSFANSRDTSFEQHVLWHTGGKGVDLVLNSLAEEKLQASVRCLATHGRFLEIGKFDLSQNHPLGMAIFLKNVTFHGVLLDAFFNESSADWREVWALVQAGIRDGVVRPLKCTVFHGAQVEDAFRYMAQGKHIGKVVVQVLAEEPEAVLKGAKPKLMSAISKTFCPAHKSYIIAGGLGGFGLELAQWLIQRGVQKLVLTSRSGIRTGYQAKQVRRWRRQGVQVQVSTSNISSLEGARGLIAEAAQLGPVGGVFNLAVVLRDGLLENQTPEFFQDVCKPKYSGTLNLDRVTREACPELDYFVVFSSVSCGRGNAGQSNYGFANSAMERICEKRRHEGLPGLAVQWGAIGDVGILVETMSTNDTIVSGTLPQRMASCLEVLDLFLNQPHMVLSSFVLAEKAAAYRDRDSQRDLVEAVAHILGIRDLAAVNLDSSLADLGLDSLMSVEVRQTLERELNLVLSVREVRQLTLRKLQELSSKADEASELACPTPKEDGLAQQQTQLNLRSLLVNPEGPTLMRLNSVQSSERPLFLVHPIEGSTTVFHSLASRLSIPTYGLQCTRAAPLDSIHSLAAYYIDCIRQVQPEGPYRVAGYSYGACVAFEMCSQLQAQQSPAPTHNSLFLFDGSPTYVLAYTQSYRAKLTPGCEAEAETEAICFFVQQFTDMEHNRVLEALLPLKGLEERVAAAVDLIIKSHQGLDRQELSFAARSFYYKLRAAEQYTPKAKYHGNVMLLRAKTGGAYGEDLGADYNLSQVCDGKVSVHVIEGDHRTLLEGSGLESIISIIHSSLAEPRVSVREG
Experimental: as §1

MCF-7 cells [2] = conditions: literature; cited from earlier work
MCF-7 cells [3] = conditions: cited from earlier work
liver isoform of CPT-1 = biological target: T2, liver isoform of CPT-1 (Homo sapiens, UniProt P50416); conditions: cited from earlier work
T2 sequence (P50416 1-773): T1 sequence (P50416 1-773)

muscle isoform of CPT-1 = biological target: T3, muscle isoform of CPT-1 (Homo sapiens, UniProt Q92523); conditions: cited from earlier work
T3 sequence (Q92523 1-772): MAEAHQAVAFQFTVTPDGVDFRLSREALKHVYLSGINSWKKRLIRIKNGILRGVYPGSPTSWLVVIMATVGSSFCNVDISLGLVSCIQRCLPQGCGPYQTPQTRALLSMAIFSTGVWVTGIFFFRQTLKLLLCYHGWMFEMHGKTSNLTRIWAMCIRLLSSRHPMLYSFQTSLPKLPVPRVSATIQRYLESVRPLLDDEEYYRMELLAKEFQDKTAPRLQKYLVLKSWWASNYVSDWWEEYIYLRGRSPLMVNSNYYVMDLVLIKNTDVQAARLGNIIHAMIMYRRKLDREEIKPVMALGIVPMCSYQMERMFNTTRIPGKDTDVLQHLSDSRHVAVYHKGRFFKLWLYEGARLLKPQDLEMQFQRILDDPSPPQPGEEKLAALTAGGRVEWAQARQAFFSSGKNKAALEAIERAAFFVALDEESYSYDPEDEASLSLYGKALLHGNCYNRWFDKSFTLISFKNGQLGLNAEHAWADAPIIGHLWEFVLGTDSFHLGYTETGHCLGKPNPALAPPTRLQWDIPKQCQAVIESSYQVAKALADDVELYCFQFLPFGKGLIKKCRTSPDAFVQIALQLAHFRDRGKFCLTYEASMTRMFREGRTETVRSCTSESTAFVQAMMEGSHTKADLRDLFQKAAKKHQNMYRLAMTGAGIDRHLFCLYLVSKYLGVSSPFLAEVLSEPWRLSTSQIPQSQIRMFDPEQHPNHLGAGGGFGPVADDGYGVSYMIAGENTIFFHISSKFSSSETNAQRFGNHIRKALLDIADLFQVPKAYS

[4] = MCF-7, 20 μg/ml 1 hr before assay

**Q.** With `CCCCCCCC[C@]1(C)SC(=O)C=C1OC(=O)OCC` (racemic) as the compound, how does the “Fatty Acid Oxidation (% Control)” value (MCF-7 cells [1]; 10 μg/mL) read?
**A.** 140 % Control

**Q.** What about the “CPT-1 Stimulation (% Control)” value (CPT-1; 20 μg/mL) of the same compound?
**A.** 150 % Control

**Q.** What about the IC50 (FAS) of the same compound?
**A.** 14.6 µM

**Q.** For `C=CCNC(=O)[C@@H]1C(=C)C(=O)O[C@H]1CCCCCCCC` (racemic), which “Fatty Acid Oxidation (% Control)” value (MCF-7 cells [1]; 0.625 μg/mL) is on record?
**A.** 400 % Control

**Q.** What about the “CPT-1 Stimulation (% Control)” value (CPT-1; 10 μg/mL) of the same compound?
**A.** 400 % Control

**Q.** And the IC50 (FAS)?
**A.** 163 µM

**Q.** Which results are given for `C=C1C(=O)O[C@@H](CCCCCCCC)[C@@H]1C(=O)NCC(=O)O` (racemic)?
**A.** Fatty Acid Oxidation (% Control) (MCF-7 cells [1]; 40 μg/mL): 500 % Control; CPT-1 Stimulation (% Control) (CPT-1; 80 μg/mL): 500 % Control; IC50 (FAS): 167 µM

**Q.** With `C=CCC1(CC=C)C(=O)S[C@@](C)(CCCCCCCC)C1=O` (racemic) as the compound, how does the “Fatty Acid Oxidation (% Control)” value (MCF-7 cells [1]; 10 μg/mL) read?
**A.** 175 % Control

**Q.** What about the “CPT-1 Stimulation (% Control)” value (CPT-1; 20 μg/mL) of the same compound?
**A.** 175 % Control

**Q.** What does the source list for `C/C=C/C/C=C/CCC(=O)[C@H]1O[C@H]1C(N)=O` [Cerulenin, reference compound]?
**A.** effect on fatty acid oxidation (MCF-7 cells [2]): inhibition of fatty acid oxidation; effect on malonyl-CoA amount (MCF-7 cells [3]): increases

**Q.** Which “CPT-1 activity, % of control” value (CPT-1; [4]) does the source give for `C=C1C(=O)OC(CCCCCCCCCCCC)C1C(=O)O` (centres unmarked) [Compound C12] here?
**A.** 186 % of control

**Q.** Which “CPT-1 activity, % of control” value (CPT-1; [4]) does the source give for `C=C1C(=O)OC(CCCCCCCCCCCCCCCC)C1C(=O)O` (centres unmarked) [Compound C16] here?
**A.** 138 % of control

**Q.** For `CCOC(=O)[C@@]1(CCCCCCOc2ccc(Cl)cc2)CO1` [Etomoxir, reference compound], which “fatty acid oxidation, % of control” value (MCF-7 cells [1]; MCF-7, FIG. 1) is on record?
**A.** 32 % of control

**Q.** Which Ki (liver isoform of CPT-1) does the source give for `CC(C)(COP(=O)(O)OP(=O)(O)OC[C@H]1O[C@@H](n2cnc3c(N)ncnc32)[C@H](O)[C@@H]1OP(=O)(O)O)[C@@H](O)C(=O)NCCC(=O)NCCSC(=O)CC(=O)O` [Malonyl-CoA, reference compound] here?
**A.** ~7 µM

**Q.** What about the “CPT-1 activity, % of control” value (CPT-1; MCF-7, 20 μM in reaction buffer) of the same compound?
**A.** 64 % of control

**Q.** What about the “reduction (inhibition) of CPT-1 activity” value (CPT-1; malonyl-CoA alone at 20 μM in the assay, MCF-7) of the same compound?
**A.** 46% and ~70%

**Q.** And the Ki (muscle isoform of CPT-1)?
**A.** 0.07 µM
